Test results as given in patent US20230265103A1 (TME Therapeutics LLC, priority 2021, published 2023).

Columns and labels:
[1] = test system: SARS-CoV-2 (strain USA-WA1/2020); test: SARS-CoV-2 antiviral assay (inhibition of CPE, neutral red); assay type: cell-based; details: SARS-COV2; for EC50: Severe acute respiratory syndrome coronavirus 2, inhibition of CPE by 50%
[2] = in vitro; details: dog
[3] = test system: Ebola virus (Mayinga strain) glycoprotein (rVSV-EBOV-GP); test: microbe, parasite or virus in culture; assay type: cell-based
[4] = test system: SARS-CoV-2 (Delta strain B.1.617); test: SARS-CoV-2 Delta antiviral assay (inhibition of CPE, neutral red); assay type: cell-based; details: SARS-COV2 (Delta)
[5] = target: T1, PIKFYVE (Homo sapiens, UniProt Q9Y2I7); test: KINOMEscan Kinase Assay (Eurofins), PIKFYVE inhibitory activity; assay type: binding; details: for IC50: KINOMEscan; for inhibition at 0.05 µM: @ 50 nM
T1 construct: purchased Eurofins (KINOMEscan); host or cells: E. coli BL21-derived (T7 phage display) or HEK-293

[6] = test system: influenza A strain California/07/09 (H1N1)pdm09; test: Influenza A antiviral assay (inhibition of CPE, neutral red); assay type: cell-based; details: for EC50: Influenza A virus, H1N1
[7] = test system: Marburg virus (Angola strain) glycoprotein (rVSV-MARV-GP); test: organism not typed; assay type: cell-based
[8] = test system: JJN3 (multiple myeloma) cells; test: Anti-proliferative activity, JJN3 (CellTiter-Glo); details: Homo sapiens, JJN-3, 144 h
[9] = test system: HuT-78 (T cell lymphoma) cells; test: Anti-proliferative activity, HuT-78 (CellTiter-Glo); details: Homo sapiens, HuT78, 144 h
[10] = in vitro; details: African green monkey

T1 sequence (Q9Y2I7 whole entry): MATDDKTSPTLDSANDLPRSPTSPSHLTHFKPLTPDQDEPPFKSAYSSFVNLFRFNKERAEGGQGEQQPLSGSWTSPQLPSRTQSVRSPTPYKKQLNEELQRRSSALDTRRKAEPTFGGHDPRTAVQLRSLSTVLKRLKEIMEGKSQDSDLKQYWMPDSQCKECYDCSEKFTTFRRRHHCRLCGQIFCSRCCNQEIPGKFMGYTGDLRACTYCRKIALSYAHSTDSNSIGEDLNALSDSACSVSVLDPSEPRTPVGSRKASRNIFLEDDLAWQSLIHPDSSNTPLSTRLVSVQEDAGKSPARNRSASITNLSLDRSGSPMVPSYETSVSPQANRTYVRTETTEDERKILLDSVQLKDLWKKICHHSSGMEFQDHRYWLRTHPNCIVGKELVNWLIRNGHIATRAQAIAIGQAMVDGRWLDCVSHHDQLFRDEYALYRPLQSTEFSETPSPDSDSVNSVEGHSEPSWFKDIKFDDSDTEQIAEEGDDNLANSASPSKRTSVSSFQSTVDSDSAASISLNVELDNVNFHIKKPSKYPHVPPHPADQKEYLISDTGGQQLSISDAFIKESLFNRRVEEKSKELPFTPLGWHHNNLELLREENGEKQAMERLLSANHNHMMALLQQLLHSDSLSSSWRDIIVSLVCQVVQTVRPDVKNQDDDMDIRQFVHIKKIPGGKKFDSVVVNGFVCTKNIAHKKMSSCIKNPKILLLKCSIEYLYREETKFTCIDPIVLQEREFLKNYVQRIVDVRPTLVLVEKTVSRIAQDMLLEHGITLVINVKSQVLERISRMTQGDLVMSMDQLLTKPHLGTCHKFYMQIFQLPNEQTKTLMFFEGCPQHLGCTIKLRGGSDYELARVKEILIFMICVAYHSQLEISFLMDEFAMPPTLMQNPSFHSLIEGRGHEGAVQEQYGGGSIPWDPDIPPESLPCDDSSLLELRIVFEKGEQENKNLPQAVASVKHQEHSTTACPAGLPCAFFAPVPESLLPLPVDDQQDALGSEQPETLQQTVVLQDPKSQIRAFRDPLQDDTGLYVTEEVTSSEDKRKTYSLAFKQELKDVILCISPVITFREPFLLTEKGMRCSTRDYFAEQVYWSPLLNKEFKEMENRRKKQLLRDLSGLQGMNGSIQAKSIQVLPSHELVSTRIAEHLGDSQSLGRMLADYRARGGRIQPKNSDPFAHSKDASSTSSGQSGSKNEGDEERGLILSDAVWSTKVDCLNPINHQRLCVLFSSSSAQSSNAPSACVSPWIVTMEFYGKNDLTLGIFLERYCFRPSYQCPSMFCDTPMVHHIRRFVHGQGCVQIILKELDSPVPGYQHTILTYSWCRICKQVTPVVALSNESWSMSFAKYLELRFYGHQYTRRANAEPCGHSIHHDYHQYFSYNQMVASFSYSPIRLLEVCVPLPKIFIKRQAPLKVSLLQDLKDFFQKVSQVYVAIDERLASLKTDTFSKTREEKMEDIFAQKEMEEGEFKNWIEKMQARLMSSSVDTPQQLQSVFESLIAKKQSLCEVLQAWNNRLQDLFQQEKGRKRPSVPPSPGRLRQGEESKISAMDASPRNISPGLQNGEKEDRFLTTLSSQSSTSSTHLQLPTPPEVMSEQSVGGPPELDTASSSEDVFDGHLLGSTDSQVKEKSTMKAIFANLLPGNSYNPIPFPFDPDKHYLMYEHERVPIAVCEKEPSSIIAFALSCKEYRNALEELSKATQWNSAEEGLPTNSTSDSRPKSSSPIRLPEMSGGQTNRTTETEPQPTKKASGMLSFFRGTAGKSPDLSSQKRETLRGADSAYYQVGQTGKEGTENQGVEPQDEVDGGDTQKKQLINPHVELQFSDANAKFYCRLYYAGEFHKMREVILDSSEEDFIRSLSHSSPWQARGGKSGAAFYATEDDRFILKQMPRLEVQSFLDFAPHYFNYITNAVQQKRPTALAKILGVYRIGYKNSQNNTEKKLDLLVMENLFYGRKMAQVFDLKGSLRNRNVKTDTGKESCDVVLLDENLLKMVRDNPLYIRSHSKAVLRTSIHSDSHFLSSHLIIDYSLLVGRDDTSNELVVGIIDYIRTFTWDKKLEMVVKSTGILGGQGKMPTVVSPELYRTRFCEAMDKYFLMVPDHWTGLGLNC

Row | Structure (SMILES) | IC50 [5] [nM] | also measured
1 | CCC(CC)COC(=O)[C@H](C)N[P@](=O)(OC[C@H]1O[C@@](C#N)(c2ccc3c(N)ncnn23)[C@H](O)[C@@H]1O)Oc1ccccc1 [remdesivir, reference compound] | – | EC50 [1]: 5.6 µM; CC50 [2]: > 100 µM
2 | Cc1cccc(-c2ccn(-c3nc(N4CCOCC4)c4sc(CN5CCN(S(C)(=O)=O)CC5)cc4n3)n2)c1 [Ex. 2, 4-(6-((4-(methylsulfonyl)piperazin-1-yl)methyl)-2-(3-(m-tolyl)-1H-pyrazol-1-yl)thieno[3,2-d]pyrimidin-4-yl)morpholine] | < 1 | Selectivity Index [3]: >6000; EC50 ([3]; Zaire ebolavirus, Vero): < 500 nM; Selectivity Index ([4]; CC50 divided by EC50): >1000; EC50 ([4]; Severe acute respiratory syndrome coronavirus 2): < 3000 nM; Selectivity Index ([1]; CC50 divided by EC50): >150; EC50 [1]: < 1 µM; EC50 [6]: < 1 µM; Selectivity Index ([6]; Influenza A, CC50 divided by EC50): >150; Selectivity Index [7]: >15000; EC50 ([7]; Vero): < 200 nM; EC50 [8]: < 50 nM; EC50 [9]: < 250 nM; CC50 [10]: > 3 mM
3 | Cc1cccc(-c2ccn(-c3nc(N4CCOCC4)c4sc(C(=O)N5CCC(C(C)(C)O)CC5)cc4n3)n2)c1 [Ex. 22, (4-(2-hydroxypropan-2-yl)piperidin-1-yl)(4-morpholino-2-(3-(m-tolyl)-1H-pyrazol-1-yl)thieno[3,2-d]pyrimidin-6-yl)methanone] | < 1 | –
4 | CC(=O)N(C)C1CCN(Cc2cc3nc(-n4ccc(-c5cccc(C)c5)n4)nc(N4CCOCC4)c3s2)CC1 [Ex. 7, N-methyl-N-(1-((4-morpholino-2-(3-(m-tolyl)-1H-pyrazol-1-yl)thieno[3,2-d]pyrimidin-6-yl)methyl)piperidin-4-yl)acetamide] | – | inhibition at 0.05 µM [5]: 100%
5 | Cc1cccc(-c2ccn(-c3cc(N4CCOCC4)c4nc(CN5CCN(S(C)(=O)=O)CC5)n(C)c4n3)n2)c1 [Ex. 72, 4-(3-methyl-2-((4-(methylsulfonyl)piperazin-1-yl)methyl)-5-(3-(m-tolyl)-1H-pyrazol-1-yl)-3H-imidazo[4,5-b]pyridin-7-yl)morpholine] | < 1 | –
6 | Cc1cccc(-c2ccn(-c3nc(N4CCCOCC4)c4sc(CN5CCN(S(C)(=O)=O)CC5)cc4n3)n2)c1 [Ex. 71, 4-(6-((4-(methylsulfonyl)piperazin-1-yl)methyl)-2-(3-(m-tolyl)-1H-pyrazol-1-yl)thieno[3,2-d]pyrimidin-4-yl)-1,4-oxazepane] | 10 to 100 | –
7 | Cc1cccc(-c2ccn(-c3nc(N4CCOCC4)c4sc(CN5CCC(N(C)C)C(F)C5)cc4n3)n2)c1 (stereo not drawn) [Ex. 51, 3-fluoro-N,N-dimethyl-1-((4-morpholino-2-(3-(m-tolyl)-1H-pyrazol-1-yl)thieno[3,2-d]pyrimidin-6-yl)methyl)piperidin-4-amine] | < 1 | –
8 | Cc1cccc(-c2ccn(-c3cc(N4CCOCC4)c4sc(CN5CCC(N6CCC6)C(F)C5)cc4n3)n2)c1 (stereo not drawn) [Ex. 70, 4-(2-((4-(azetidin-1-yl)-3-fluoropiperidin-1-yl)methyl)-5-(3-(m-tolyl)-1H-pyrazol-1-yl)thieno[3,2-b]pyridin-7-yl)morpholine] | < 1 | –
9 | Cc1cccc(-c2ccn(-c3cc(N4CCOCC4)c4sc(CN5CCOCC5)cc4n3)n2)c1 [Ex. 66, 4-((7-morpholino-5-(3-(m-tolyl)-1H-pyrazol-1-yl)thieno[3,2-b]pyridin-2-yl)methyl)morpholine] | < 1 | –
10 | CS(=O)(=O)N1CCN(Cc2cc3nc(-n4ccc(-c5cccc(Br)c5)n4)nc(N4CCOCC4)c3s2)CC1 [Ex. 1, 4-(2-(3-(3-bromophenyl)-1H-pyrazol-1-yl)-6-((4-(methylsulfonyl)piperazin-1-yl)methyl)thieno[3,2-d]pyrimidin-4-yl)morpholine] | 1 to 10 | –
11 | Cc1cccc(-c2ccn(-c3nc(N4CCOCC4)c4sc(CN5CCN(S(C)(=O)=O)CC5)c(C)c4n3)n2)c1 [Ex. 54, 4-(7-methyl-6-((4-(methylsulfonyl)piperazin-1-yl)methyl)-2-(3-(m-tolyl)-1H-pyrazol-1-yl)thieno[3,2-d]pyrimidin-4-yl)morpholine] | < 1 | –
12 | Cc1cccc(-c2ccn(-c3cc(N4CCOCC4)c4nc(CN5CCOCC5)[nH]c4n3)n2)c1 [Ex. 38, 4-((7-morpholino-5-(3-(m-tolyl)-1H-pyrazol-1-yl)-3H-imidazo[4,5-b]pyridin-2-yl)methyl)morpholine] | < 1 | –
13 | Cc1cccc(-c2ccn(-c3nc(N4CCOCC4)c4sc(C(=O)N5CCN(C)CC5)cc4n3)n2)c1 [Ex. 25, (4-methylpiperazin-1-yl)(4-morpholino-2-(3-(m-tolyl)-1H-pyrazol-1-yl)thieno[3,2-d]pyrimidin-6-yl)methanone] | < 1 | –
14 | Cc1cccc(-c2ccn(-c3nc(N4CCOCC4)c4sc(CN5CCC(N(C)S(C)(=O)=O)CC5)cc4n3)n2)c1 [Ex. 6, N-methyl-N-(1-((4-morpholino-2-(3-(m-tolyl)-1H-pyrazol-1-yl)thieno[3,2-d]pyrimidin-6-yl)methyl)piperidin-4-yl)methanesulfonamide] | – | inhibition at 0.05 µM [5]: 100%
15 | Cc1cccc(-c2ccn(-c3nc(N4CCOCC4)c4nc(-c5cnn(C)c5)[nH]c4n3)n2)c1 [Ex. 44, 4-(8-(1-methyl-1H-pyrazol-4-yl)-2-(3-(m-tolyl)-1H-pyrazol-1-yl)-9H-purin-6-yl)morpholine] | < 1 | –
16 | Cc1cccc(-c2ccn(-c3nc(N4CC5CC4CO5)c4sc(CN5CCN(S(C)(=O)=O)CC5)cc4n3)n2)c1 (stereo not drawn) [Ex. 73, 5-(6-((4-(methylsulfonyl)piperazin-1-yl)methyl)-2-(3-(m-tolyl)-1H-pyrazol-1-yl)thieno[3,2-d]pyrimidin-4-yl)-2-oxa-5-azabicyclo[2.2.1]heptane] | 10 to 100 | –
17 | Cc1cccc(-c2ccn(-c3nc(N4CCOCC4)c4nc(CN5CCC(N(C)S(C)(=O)=O)CC5)[nH]c4n3)n2)c1 [Ex. 11, N-methyl-N-(1-((6-morpholino-2-(3-(m-tolyl)-1H-pyrazol-1-yl)-9H-purin-8-yl)methyl)piperidin-4-yl)methanesulfonamide] | 1 to 10 | –
18 | Cc1cccc(-c2ccn(-c3nc(N4CCOCC4)c4nc(CN5CCN(C)CC5)[nH]c4n3)n2)c1 [Ex. 35, 4-(8-((4-methylpiperazin-1-yl)methyl)-2-(3-(m-tolyl)-1H-pyrazol-1-yl)-9H-purin-6-yl)morpholine] | – | inhibition at 0.001 µM ([5]; @ 1 nM): 13%
19 | Cc1cccc(-c2ccn(-c3nc(N4CCOCC4)c4nc(CN5CCN(C)CC5)sc4n3)n2)c1 [Ex. 34, 4-(2-((4-methylpiperazin-1-yl)methyl)-5-(3-(m-tolyl)-1H-pyrazol-1-yl)thiazolo[5,4-d]pyrimidin-7-yl)morpholine] | 1 to 10 | –
20 | Cc1cccc(-c2ccn(-c3nc(N4CCOCC4)c4sc(C(C)N5CCC(N(C)C)CC5)cc4n3)n2)c1 (stereo not drawn) [Ex. 17, N,N-dimethyl-1-(1-(4-morpholino-2-(3-(m-tolyl)-1H-pyrazol-1-yl)thieno[3,2-d]pyrimidin-6-yl)ethyl)piperidin-4-amine] | < 1 | –
21 | NC(=O)c1ncn([C@@H]2O[C@H](CO)[C@@H](O)[C@H]2O)n1 [ribavirin, reference compound] | – | EC50 [6]: 3.8 µM; CC50 [2]: > 1000 µM
22 | Cc1cccc(-c2ccn(-c3nc(N4CCOCC4)c4nc(CN5CCC(N6CCC6)C(F)C5)sc4n3)n2)c1 (stereo not drawn) [Ex. 47, 4-(2-((4-(azetidin-1-yl)-3-fluoropiperidin-1-yl)methyl)-5-(3-(m-tolyl)-1H-pyrazol-1-yl)thiazolo[5,4-d]pyrimidin-7-yl)morpholine] | < 1 | –
23 | Cc1cccc(-c2ccn(-c3nc(N4CCOCC4)c4nc(CN5CCC(C(C)(C)O)CC5)[nH]c4n3)n2)c1 [Ex. 13, 2-(1-((6-morpholino-2-(3-(m-tolyl)-1H-pyrazol-1-yl)-9H-purin-8-yl)methyl)piperidin-4-yl)propan-2-ol] | 1 to 10 | –
24 | Cc1cccc(-c2ccn(-c3nc(N4CCOCC4)c4sc(CN5CCC(N6CCOCC6)CC5)cc4n3)n2)c1 [Ex. 33, 4-(1-((4-morpholino-2-(3-(m-tolyl)-1H-pyrazol-1-yl)thieno[3,2-d]pyrimidin-6-yl)methyl)piperidin-4-yl)morpholine] | > 100 | –
25 | Cc1cccc(-c2ccn(-c3nc(N4CCOCC4)c4sc(CN5CC(C6CCOCC6)C5)c(C)c4n3)n2)c1 [Ex. 63, 4-(7-methyl-6-((3-(tetrahydro-2H-pyran-4-yl)azetidin-1-yl)methyl)-2-(3-(m-tolyl)-1H-pyrazol-1-yl)thieno[3,2-d]pyrimidin-4-yl)morpholine] | 1 to 10 | –
26 | Cc1cccc(-c2ccn(-c3nc(N4CCOCC4)c4nc(CN5CCN(S(C)(=O)=O)CC5)sc4n3)n2)c1 [Ex. 9, 4-(2-((4-(methylsulfonyl)piperazin-1-yl)methyl)-5-(3-(m-tolyl)-1H-pyrazol-1-yl)thiazolo[5,4-d]pyrimidin-7-yl)morpholine] | 1 to 10 | –
27 | Cc1cccc(-c2ccn(-c3nc(N4CCOCC4)c4nc(C(C)N5CCN(S(C)(=O)=O)CC5)sc4n3)n2)c1 (stereo not drawn) [Ex. 12, 4-(2-(1-(4-(methylsulfonyl)piperazin-1-yl)ethyl)-5-(3-(m-tolyl)-1H-pyrazol-1-yl)thiazolo[5,4-d]pyrimidin-7-yl)morpholine] | 1 to 10 | –
